In data set [1] the test system is streßinduzierten Magenulzera. The experiment in a line: Inhibition of stress-induced gastric ulcers (immobilisation ulcer, method of Brodie). The data set is classed as in vivo, Ratten. As to conditions: Rattus norvegicus, read-out: Immobilisationsulkus ED50. An excerpt:
Die Hemmwirkung auf die Bildung von streßinduzierten Magenulzera wurde nach der Methode von D.A.Brodie, Gastroenterolody, 38 (1960), 50, an weiblichen Ratten im Gewicht von 150 - 180 Gramm vom VEB Versuchstierproduktion Schönwalde bestimmt. Die Nahrungskarenz vor Versuchsbeginn betrug 48 Stunden, bei Wasser ad libitum. Die Testsubstanzen wurden unmittelbar vor Versuchsbeginn oral, mittels Schlundsonde appliziert. Die Immobilisation erfolgte mittels Gipsbinden über 18 Stunden. Während der Versuchsdauer war die Raumtemperatur konstant 20° C. Nach Versuchsende wurden die Tiere durch Äther getötet, die Mägen entnommen, entlang der kleinen Kurvatur aufgeschnitten und die Drüsenschleimhautdefekte nach Zahl und Länge im Vergleich zur Kontrollgruppe beurteilt. Für die statistische Berechnung diente die Probit-Regressions-Analyse.

Data set [2] has as its system Größe der Pupille. As to conditions: mouse, in vivo, po.
Excerpt: (§1) Die Wirkung der Substanzen auf die Größe der Pupille wurde an weiblichen Mäusen im Gewicht zwischen 18 und 23 Gramm nach der Versuchsordnung von R.Pulewka, Exp.Pathol. […] 30, 60, 90, 120, 180 und 240 Minuten nach oraler Präparatgabe wurde die Pupillenweite bestimmt und die x-fache Veränderung zum Ausgangswert berechnet. Als ED3-fach gilt die Dosis, bei der eine dreifache Pupillenerweiterung im Vergleich zum Ausgangswert auftritt.
A further data set is described as follows: in vivo. As to conditions: mouse, male and female mice, oral, read-out: akute Toxizität LD50. The text has this: Die akute Toxizität wurde an jeweils 5 männlichen und 5 weiblichen Mäusen im Gewicht von 18 - 23 Gramm pro dosi bestimmt. Die Applikation der Prüfsubstanzen erfolgte oral. Die Berechnung der LD50 wurde nach Litchfield und Wilcoxon durchgeführt.

The subject of data set [3] is phenylbutazoninduzierte Magenulzera. The experiment in a line: Inhibition of phenylbutazone-induced gastric ulcers (model of Beattie et al.). As to conditions: Rattus norvegicus, 48 h; female rats, oral dose half an hour before each s.c. injection of 150 mg/kg Phenylbutazon on two days; read-out: Phenylbutazonulkus ED50. The data set is classed as in vivo, Ratten. How it is done:
Die Hemmwirkung der Verbindungen auf phenylbutazoninduzierte Magenulzera wurde in Anlehnung an das Modell von Beattie und Mitarbeiter, Arzneimittelforschung, 29, (1979), 1812 ermittelt. Für die Untersuchung kamen weibliche Ratten der hauseigenen Zucht im Gewicht von 150 - 180 Gramm zur Anwendung.
Die Nahrungskarenz vor Versuchsbeginn betrug 24 Stunden, bei Wasser ad libitum. Während des Versuchs wurden die Tiere im Klimaraum bei einer Temperatur zwischen 22° C und 23° C gehalten. Die Ratten erhielten zwei Tage hintereinander jeweils 7 Uhr morgens eine s.c. Injektion von 150 mg/kg Phenylbutazon und die Tötung erfolgte sechs Stunden nach der letzten Injektion durch Nackenschlag. Die herauspräparierten Mägen wurden entlang der kleinen Kurvatur aufgeschnitten und die Schleimhautdefekte nach Zahl und Länge beurteilt. Die Applikation der Prüfsubstanzen erfolgte oral, eine halbe Stunde vor jeder Phenylbutazoninjektion.

The test system of data set [4] is Größe der Pupille. The experiment in a line: Effect on pupil size (mydriasis, method of Pulewka). As to conditions: female mice, oral; dose that widens the pupil three-fold versus baseline.
Excerpt: as §1
Where [5] appears, read: female rats, oral dose immediately before start, immobilisation for 18 hours, probit regression analysis.

Results on seven compounds are retold here after patent EP0139627A1, “Process for the preparation of 5,10-dihydro-1H-dibenzo [B,E] [1,4] diazepin-11-ones substituted in position 5” (ARZNEIMITTELWERK DRESDEN GmbH, priority 1983, dated 1985).

Where two headings read alike, the source gives them in different places.

The ED50 is the dose that gives a 50% effect, or the effect in half of the subjects. As for `CN1C2CCC1CC(OC(=O)C(CO)c1ccccc1)C2` (racemic) [Atropin, reference compound], the 50% effective dose (ED50) in data set [1] (po, 18 h) amounted to 0.6 mg/kg. In the data set on Größe der Pupille [2], the “Pupillomotorik ED3-fach” value is 0,8 mg/kg.

As a reminder, the LD50 is the dose expected to kill half of the subjects tested. On to `O=C1Nc2cc(Cl)ccc2N(C(=O)CN(CCO)CCO)c2ccccc21` [A, 8-Chlor-5,10-dihydro-5-[bis-(2-hydroxyäthyl)amino-acetyl]-11H-dibenzo[b,e] [1,4]diazepin-11-on], for which the 50% lethal dose (LD50) in “in vivo” was 2000 mg/kg. Moreover, the 50% effective dose (ED50) in data set [3] was determined as 5 mg/kg; in data set [1] (setting [5]), 6 mg/kg. Further, the “Pupillomotorik ED3-fach” value in the data set with Größe der Pupille [2] is given as 30 mg/kg.

Turning to `O=C1Nc2ccccc2N(C(=O)CN(CCO)CCO)c2ccccc21` [B, 5,10-Dihydro-5-[bis-(2-hydroxyäthyl) -aminoacetyl]-11H-dibenzo[b,e][1,4] diazepin-11-on], the LD50 in the data set “in vivo” is 2000 mg/kg. Also, the median effective dose (ED50) was found to be 1.6 mg/kg in data set [3] and 1 mg/kg in data set [1] (setting [5]). Besides, in the data set with Größe der Pupille [2], the “Pupillomotorik ED3-fach” value is given as 4 mg/kg.

As to `O=C1Nc2ccccc2N(C(=O)CN2CCN(C(=O)c3ccco3)CC2)c2ccccc21` [C, 5,10-Dihydro-5-(2-{4-[(2-furanyl)-carbonyl] -1-piperazinyl}-acetyl)-11H-dibenzo[b,e] [1,4]diazepin-11-on], the LD50 in the data set “in vivo” was determined as 2000 mg/kg. Moreover, the results for the ED50 in data set [3] and in data set [1] (setting [5]) were 20 mg/kg and 14 mg/kg, respectively. For the same compound, in the data set on Größe der Pupille [2], the “Pupillomotorik ED3-fach” value is listed as 67 mg/kg.

As for `CN1C(=O)c2ccccc2N(C(=O)CN2CCN(C(=O)c3ccco3)CC2)c2ccc(Cl)cc21` [D, 8-Chlor-5, 10-dihydro-5-(2-{4-[(2-furanyl)-carbonyl]-1-piperazinyl}-acetyl)-10-methyl-11H-dibenzolbenzo[b,e][1,4]-diazepin-11-on], the LD50 in the data set “in vivo” was 1600 mg/kg. Besides, the median effective dose (ED50) came to 36 mg/kg in data set [3] and 26 mg/kg in data set [1] (setting [5]). Also, the “Pupillomotorik ED3-fach” value in the data set on Größe der Pupille [2] is given as 250 mg/kg.

As to `CN1C(=O)c2ccccc2N(C(=O)CN(CCO)CCO)c2ccccc21` [E, 5,10-Dihydro-10-methyl-5-[bis-{2-hydroxyäthyl)-amino-acetyl]-11H-dibenzo[b,e] [1,4]diazepin-11-on], the median lethal dose (LD50) in the data set “in vivo” worked out at 1000 mg/kg. Besides, the median effective dose (ED50) in data set [3] turned out to be 22 mg/kg; in data set [1] (setting [5]), 27 mg/kg. The “Pupillomotorik ED3-fach” value in the data set on Größe der Pupille [2] was 95 mg/kg.

As to `CN1CCN(CC(=O)N2c3ccccc3C(=O)Nc3cccnc32)CC1` [Pi renzepin, Pirenzepin, reference compound], the median effective dose (ED50) in data set [3] was 18 mg/kg; in data set [1] (setting [5]), 11 mg/kg. The “Pupillomotorik ED3-fach” value in the data set with Größe der Pupille [4] was determined as 30 mg/kg.
